Laboratory results published in patent US20130252935A1, “Monobactams” (PFIZER INC., priority 2010, published 2013).
Converted amounts (≈) assume the structure as drawn.

Experiments:
Type in all cases: cell-based
[1] = test system: Klebsiella pneumoniae 1000-02; experiment: minimum inhibitory concentration (MIC) testing according to CLSI guidelines, Klebsiella pneumoniae; conditions: ciprofloxacin-resistant, ESBL-expressing clinical isolate 1000-02, overnight incubation, lower of duplicate values; for MIC: Klebsiella pneumoniae, read-out: AB-MBT: Klebsiella pneumoniae 1000-02: MIC (MstRcnt)
How it was run: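 MIC by CLSI broth dilution with 2-fold concentration steps and overnight incubation; lowest concentration visibly inhibiting growth versus drug-free control. Ciprofloxacin-resistant, ESBL-expressing clinical isolate 1000-02. Run in duplicate, lower value reported when within 2-fold, with QC organisms and reference compounds per run.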

[2] = test system: Acinetobacter baumannii/haemolyticus AB-3167; experiment: minimum inhibitory concentration (MIC) testing according to CLSI guidelines, Acinetobacter; conditions: multidrug-resistant clinical isolate AB-3167, overnight incubation, lower of duplicate values; for MIC: Acinetobacter baumannii, read-out: AB-MBT: Acinetobacter baumanii AB-3167: MIC (MstRcnt)
How it was run: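 Broth dilution MIC per CLSI M7-A8/M100-S20 against multidrug-resistant clinical isolate AB-3167, using 2-fold drug dilutions and overnight incubation; MIC is the lowest concentration without visible growth. Duplicates within 2-fold reported as the lower value, with control strains and reference compounds in range.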

[3] = test system: Pseudomonas aeruginosa UC-12120; experiment: minimum inhibitory concentration (MIC) testing according to CLSI guidelines, Pseudomonas aeruginosa; conditions: UC-12120, wild-type, labeled as 1091-05, overnight incubation, lower of duplicate values; for MIC: Pseudomonas aeruginosa, UC12120, read-out: AB-MBT: Pseudomonas aeruginosa 1091-05: MIC (MstRcn)
How it was run: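 Broth dilution MIC per CLSI guidelines against wild-type P. aeruginosa UC-12120 (1091-05), using 2-fold drug dilutions and overnight incubation with visual reading of lowest growth-inhibiting concentration. Tested in duplicate; lower value reported when within 2-fold, with control organisms and reference compounds for quality control.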

Structure (SMILES)	MIC [1]	MIC [3]	AB-MBT: Klebsiella pneumoniae 1000-02: MIC (MstRcnt) [1]	AB-MBT: Pseudomonas aeruginosa 1091-05: MIC (MstRcn) [3]	MIC [2]	AB-MBT: Acinetobacter baumanii AB-3167: MIC (MstRcnt) [2]
CC(C)(O/N=C(\C(=O)N[C@@H]1C(=O)N(S(=O)(=O)O)[C@@H]1CNS(=O)(=O)NCc1cc(=O)c(O)cn1O)c1csc(N)n1)C(=O)O [Example 37, 2-({[(1Z)-1-(2-amino-1,3-thiazol-4-yl)-2-{[(2R,3S)-2-{[({[(1,5-dihydroxy-4-oxo-1,4-dihydropyridin-2-yl)methyl]amino}sulfonyl)amino]methyl}-4-oxo-1-sulfoazetidin-3-yl]amino}-2-oxoethylidene]amino}oxy)-2-methylpropanoic acid]	4 mg/L (≈ 5.98 µM)	1 mg/L (≈ 1.5 µM)			2 mg/L (≈ 2.99 µM)	
CC(C)(O/N=C(\C(=O)N[C@@H]1C(=O)N(S(=O)(=O)O)[C@@H]1CNC(=O)c1cccc(C(=O)NCc2cc(=O)c(O)cn2O)c1)c1csc(N)n1)C(=O)O [Example 44, 2-({[(1Z)-1-(2-amino-1,3-thiazol-4-yl)-2-{[(2R,3S)-2-{[(3-{[(1,5-dihydroxy-4-oxo-1,4-dihydropyridin-2-yl)methyl]carbamoyl}benzoyl)amino]methyl}-4-oxo-1-sulfoazetidin-3-yl]amino}-2-oxoethylidene]amino}oxy)-2-methylpropanoic acid]	0.25 mg/L (≈ 0.339 µM)	0.25 mg/L (≈ 0.339 µM)			0.25 mg/L (≈ 0.339 µM)	
CC(C)(O/N=C(\C(=O)N[C@@H]1C(=O)N(S(=O)(=O)O)[C@@H]1CNC(=O)c1cccc(S(=O)(=O)NCc2cc(=O)c(O)cn2O)c1)c1csc(N)n1)C(=O)O [Example 40, 2-({[(1Z)-1-(2-amino-1,3-thiazol-4-yl)-2-{[(2R,3S)-2-({[3-({[(1,5-dihydroxy-4-oxo-1,4-dihydropyridin-2-yl)methyl]amino}sulfonyl)benzoyl]amino}methyl)-4-oxo-1-sulfoazetidin-3-yl]amino}-2-oxoethylidene]amino}oxy)-2-methylpropanoic acid]	0.5 mg/L (≈ 0.647 µM)	0.25 mg/L (≈ 0.324 µM)			0.25 mg/L (≈ 0.324 µM)	
CC(C)(O/N=C(\C(=O)N[C@@H]1C(=O)N(S(=O)(=O)O)[C@@H]1COC(=O)CNC(=O)c1cc(=O)c(O)cn1O)c1csc(N)n1)C(=O)O [Example 7, 2-({[(1Z)-1-(2-amino-1,3-thiazol-4-yl)-2-({(2S,3S)-2-[({N-[(1,5-dihydroxy-4-oxo-1,4-dihydropyridin-2-yl)carbonyl]glycyl}oxy)methyl]-4-oxo-1-sulfoazetidin-3-yl}amino)-2-oxoethylidene]amino}oxy)-2-methylpropanoic acid]	8 mg/L (≈ 12.1 µM)	0.125 mg/L (≈ 0.189 µM)			0.5 mg/L (≈ 0.756 µM)	
CC(C)(O/N=C(\C(=O)N[C@@H]1C(=O)N(S(=O)(=O)[O-])[C@@H]1CNC(=O)c1coc(-c2cc(=O)c(O)c[nH]2)n1)c1csc(N)n1)C(=O)[O-].[Na+].[Na+] [Example 18, 2-({[(1Z)-1-(2-amino-1,3-thiazol-4-yl)-2-({(2R,3S)-2-[({[2-(5-hydroxy-4-oxo-1,4-dihydropyridin-2-yl)-1,3-oxazol-4-yl]carbonyl}amino)methyl]-4-oxo-1-sulfoazetidin-3-yl}amino)-2-oxoethylidene]amino}oxy)-2-methylpropanoic acid, bis sodium salt]			0.500 mg/L	0.250 mg/L		1.00 mg/L
Nc1nc(/C(=N/OC2(C(=O)O)CCCCC2)C(=O)N[C@@H]2C(=O)N(S(=O)(=O)O)[C@@H]2CNC(=O)NCc2cc(=O)c(O)cn2O)cs1 [Example 28, 1-({[(1Z)-1-(2-amino-1,3-thiazol-4-yl)-2-({(2R,3S)-2-[({[(1,5-dihydroxy-4-oxo-1,4-dihydropyridin-2-yl)methyl]carbamoyl}amino)methyl]-4-oxo-1-sulfoazetidin-3-yl}amino)-2-oxoethylidene]amino}oxy)cyclohexanecarboxylic acid]	0.5 mg/L (≈ 0.743 µM)	1 mg/L (≈ 1.49 µM)			1 mg/L (≈ 1.49 µM)	
CC(C)(O/N=C(\C(=O)N[C@@H]1C(=O)N(S(=O)(=O)O)[C@@H]1CNC(=O)NCc1cc(=O)c(O)cn1O)c1nsc(N)n1)C(=O)O [Example 33, 2-({[(1Z)-1-(5-amino-1,2,4-thiadiazol-3-yl)-2-({(2R,3S)-2-[({[(1,5-dihydroxy-4-oxo-1,4-dihydropyridin-2-yl)methyl]carbamoyl}amino)methyl]-4-oxo-1-sulfoazetidin-3-yl}amino)-2-oxoethylidene]amino}oxy)-2-methylpropanoic acid]	2 mg/L (≈ 3.16 µM)	0.25 mg/L (≈ 0.395 µM)			0.5 mg/L (≈ 0.789 µM)	
CC(C)(O/N=C(\C(=O)N[C@@H]1C(=O)N(S(=O)(=O)O)[C@@H]1CNC(=O)C1CN(C(=O)c2cc(=O)c(O)c[nH]2)C1)c1csc(N)n1)C(=O)O [Example 8, 2-({[(1Z)-1-(2-amino-1,3-thiazol-4-yl)-2-{[(2R,3S)-2-{[({1-[(5-hydroxy-4-oxo-1,4-dihydropyridin-2-yl)carbonyl]azetidin-3-yl}carbonyl)amino]methyl}-4-oxo-1-sulfoazetidin-3-yl]amino}-2-oxoethylidene]amino}oxy)-2-methylpropanoic acid]	4 mg/L (≈ 5.96 µM)	1 mg/L (≈ 1.49 µM)			1 mg/L (≈ 1.49 µM)	

Further lines, with some results ahead:

MIC [1]	MIC [3]	AB-MBT: Klebsiella pneumoniae 1000-02: MIC (MstRcnt) [1]	AB-MBT: Pseudomonas aeruginosa 1091-05: MIC (MstRcn) [3]	Structure (SMILES)	MIC [2]	AB-MBT: Acinetobacter baumanii AB-3167: MIC (MstRcnt) [2]
1 mg/L (≈ 1.29 µM)	1 mg/L (≈ 1.29 µM)			CC(C)(O/N=C(\C(=O)N[C@@H]1C(=O)N(S(=O)(=O)O)[C@@H]1CNS(=O)(=O)c1ccc(C(=O)NCc2cc(=O)c(O)cn2O)cc1)c1csc(N)n1)C(=O)O [Example 48, 2-({[(1Z)-1-(2-amino-1,3-thiazol-4-yl)-2-{[(2R,3S)-2-({[(4-{[(1,5-dihydroxy-4-oxo-1,4-dihydropyridin-2-yl)methyl]carbamoyl}phenyl)sulfonyl]amino}methyl)-4-oxo-1-sulfoazetidin-3-yl]amino}-2-oxoethylidene]amino}oxy)-2-methylpropanoic acid]	2 mg/L (≈ 2.59 µM)	
0.25 mg/L (≈ 0.372 µM)	0.06 mg/L (≈ 0.0892 µM)			Nc1nc(/C(=N/OC2(C(=O)O)CCC2)C(=O)N[C@@H]2C(=O)N(S(=O)(=O)O)[C@@H]2CNC(=O)C(=O)NCc2cc(=O)c(O)cn2O)cs1 [Example 65, 1-({[(1Z)-1-(2-amino-1,3-thiazol-4-yl)-2-{[(2R,3S)-2-({[{[(1,5-dihydroxy-4-oxo-1,4-dihydropyridin-2-yl)methyl]amino}(oxo)acetyl]amino}methyl)-4-oxo-1-sulfoazetidin-3-yl]amino}-2-oxoethylidene]amino}oxy)cyclobutanecarboxylic acid]	0.125 mg/L (≈ 0.186 µM)	
2 mg/L (≈ 2.78 µM)	0.125 mg/L (≈ 0.173 µM)			CC(C)(O/N=C(\C(=O)N[C@@H]1C(=O)N(S(=O)(=O)O)[C@@H]1CNC(=O)c1ccc(CNC(=O)c2cc(O)c(O)cn2)cc1)c1csc(N)n1)C(=O)O [Example 51, 2-({[(1Z)-1-(2-amino-1,3-thiazol-4-yl)-2-{[(2R,3S)-2-({[4-({[(4,5-dihydroxypyridin-2-yl)carbonyl]amino}methyl)benzoyl]amino}methyl)-4-oxo-1-sulfoazetidin-3-yl]amino}-2-oxoethylidene]amino}oxy)-2-methylpropanoic acid]	1 mg/L (≈ 1.39 µM)	
0.06 mg/L (≈ 0.0975 µM)	0.25 mg/L (≈ 0.406 µM)			Nc1nc(/C(=N/OC2(C(=O)O)CCC2)C(=O)N[C@@H]2C(=O)N(S(=O)(=O)O)[C@@H]2CNC(=O)c2cc(=O)c(O)cn2O)cs1 [Example 58, 1-({[(1Z)-1-(2-amino-1,3-thiazol-4-yl)-2-{[(2R,3S)-2-({[(1,5-dihydroxy-4-oxo-1,4-dihydropyridin-2-yl)carbonyl]amino}methyl)-4-oxo-1-sulfoazetidin-3-yl]amino}-2-oxoethylidene]amino}oxy)cyclobutanecarboxylic acid]	0.25 mg/L (≈ 0.406 µM)	
1 mg/L (≈ 1.36 µM)	0.5 mg/L (≈ 0.679 µM)			CC(C)(O/N=C(\C(=O)N[C@@H]1C(=O)N(S(=O)(=O)O)[C@@H]1CNC(=O)Cc1cccc(NC(=O)c2cc(=O)c(O)cn2O)c1)c1csc(N)n1)C(=O)O [Example 56, 2-({[(1Z)-1-(2-amino-1,3-thiazol-4-yl)-2-{[(2R,3S)-2-({[(3-{[(1,5-dihydroxy-4-oxo-1,4-dihydropyridin-2-yl)carbonyl]amino}phenyl)acetyl]amino}methyl)-4-oxo-1-sulfoazetidin-3-yl]amino}-2-oxoethylidene]amino}oxy)-2-methylpropanoic acid]	1 mg/L (≈ 1.36 µM)	
1 mg/L (≈ 1.29 µM)	4 mg/L (≈ 5.18 µM)			CC(C)(O/N=C(\C(=O)N[C@@H]1C(=O)N(S(=O)(=O)O)[C@@H]1CNS(=O)(=O)c1cccc(C(=O)NCc2cc(=O)c(O)cn2O)c1)c1csc(N)n1)C(=O)O [Example 68, 2-({[(1Z)-1-(2-amino-1,3-thiazol-4-yl)-2-{[(2R,3S)-2-({[(3-{[(1,5-dihydroxy-4-oxo-1,4-dihydropyridin-2-yl)methyl]carbamoyl}phenyl)sulfonyl]amino}methyl)-4-oxo-1-sulfoazetidin-3-yl]amino}-2-oxoethylidene]amino}oxy)-2-methylpropanoic acid]	4 mg/L (≈ 5.18 µM)	
1 mg/L (≈ 1.45 µM)	0.25 mg/L (≈ 0.363 µM)			CC(C)(O/N=C(\C(=O)N[C@@H]1C(=O)N(S(=O)(=O)O)[C@@H]1CNC(=O)CNC(=O)NCc1cc(=O)c(O)cn1O)c1csc(N)n1)C(=O)O [Example 53, 2-({[(1Z)-1-(2-amino-1,3-thiazol-4-yl)-2-{[(2R,3S)-2-{[(N-{[(1,5-dihydroxy-4-oxo-1,4-dihydropyridin-2-yl)methyl]carbamoyl}glycyl)amino]methyl}-4-oxo-1-sulfoazetidin-3-yl]amino}-2-oxoethylidene]amino}oxy)-2-methylpropanoic acid]	0.25 mg/L (≈ 0.363 µM)	
